Data set [1] has as its target T1, Human 5-lipoxygenase (Homo sapiens, UniProt P09917).
T1 construct: purchased Cayman 60402; host or cells: insect cells
T1 sequence (P09917 1-674): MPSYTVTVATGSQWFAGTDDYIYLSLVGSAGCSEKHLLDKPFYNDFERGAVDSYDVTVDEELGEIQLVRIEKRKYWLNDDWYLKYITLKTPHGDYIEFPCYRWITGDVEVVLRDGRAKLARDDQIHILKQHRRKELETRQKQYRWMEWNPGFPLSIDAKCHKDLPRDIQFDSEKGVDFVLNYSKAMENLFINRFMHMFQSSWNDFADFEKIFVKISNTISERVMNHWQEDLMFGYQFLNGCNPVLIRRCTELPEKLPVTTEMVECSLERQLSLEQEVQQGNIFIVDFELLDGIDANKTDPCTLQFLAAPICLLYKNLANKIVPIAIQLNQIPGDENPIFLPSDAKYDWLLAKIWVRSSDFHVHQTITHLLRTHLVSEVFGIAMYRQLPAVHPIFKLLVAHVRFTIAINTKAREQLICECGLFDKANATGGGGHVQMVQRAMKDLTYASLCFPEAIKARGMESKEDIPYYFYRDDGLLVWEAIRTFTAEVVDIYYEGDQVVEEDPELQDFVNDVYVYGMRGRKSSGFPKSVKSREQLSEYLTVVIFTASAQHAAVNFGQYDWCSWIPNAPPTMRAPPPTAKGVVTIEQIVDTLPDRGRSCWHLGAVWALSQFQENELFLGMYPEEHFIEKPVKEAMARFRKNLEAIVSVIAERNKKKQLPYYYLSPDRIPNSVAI
The experiment in a line: Activity of compounds against 5-LO enzyme (LTB4 measurement and/or fluorescence method). To be noted: for inhibition at 10 µM: 5-LO, single concentration of 10 uM in duplicate; for IC50: 6 or 11 point dose response in duplicate. In kind it is biochemical. The method in brief:
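Insect-cell human 5-LO preincubated 15 min at RT with compound (pH 7.4, 2 mM CaCl2, 0.1 mM ATP, 1% DMSO), then 3 uM arachidonic acid for 5 min at 37 °C; LTB4 quantified by EIA and/or LC/MS/MS. Alternatively, fluorescence of 5-HpETE via H2DCFDA, 100 uM ATP, 3 uM arachidonic acid, 5 min, RT; single 10 uM screen then 6- or 11-point IC50.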

`CCc1nc2ccc(Cl)cn2c1C(=O)NCc1ccc(N2CCC(COC)CC2)cc1` [compound 247, 6-Chloro-2-ethyl-N-(4-(4-(methoxymethyl)piperidin-1-yl)benzyl)imidazo[1,2-a]pyridine-3-carboxamide] showed a melting point of 162.1 °C. For the same compound, the inhibition at 10 µM in data set [1] fell in the range of 40 to 69%.
In the same order, the values of `CCc1nc2cc(Cl)ccn2c1C(=O)NCc1ccc(N2CCC(COC)CC2)cc1` [compound 248, 7-Chloro-2-ethyl-N-(4-(4-(methoxymethyl)piperidin-1-yl)benzyl)imidazo[1,2-a]pyridine-3-carboxamide] are 172.5 °C and under 40%.
In turn, `CCc1nc2ccc(Cl)cn2c1C(=O)NCc1ccc(N2CCC(c3ccc(F)cc3)CC2)cc1` [compound 249, 6-Chloro-2-ethyl-N-(4-(4-(4-fluorophenyl)piperidin-1-yl)benzyl)imidazo[1,2-a]pyridine-3-carboxamide] registered a melting point of 164 °C. For the same compound, the inhibition at 10 µM in data set [1] is 40 to 69%.
As to `CCc1nc2cc(Cl)ccn2c1C(=O)NCc1ccc(N2CCC(c3ccc(F)cc3)CC2)cc1` [compound 250, 7-Chloro-2-ethyl-N-(4-(4-(4-fluorophenyl)piperidin-1-yl)benzyl)imidazo[1,2-a]pyridine-3-carboxamide], the melting point turned out to be 182.7 °C. In data set [1], this compound showed an inhibition at 10 µM of 40 to 69%.
The compound `CCc1nc2cc(Cl)ccn2c1C(=O)NCc1ccc(N2CCCCC2C)cc1` (stereo not drawn) [compound 252, 7-chloro-2-ethyl-N-(4-(2-methylpiperidin-1-yl)benzyl)imidazo[1,2-a]pyridine-3-carboxamide] yielded a melting point of 117.9 °C. The compound also yielded an inhibition at 10 µM in data set [1] of under 40%.
`CCc1nc2cc(Br)ccn2c1C(=O)NCc1ccc(N2CCOCC2)cc1` [compound 253, 7-Bromo-2-ethyl-N-(4-morpholinobenzyl)imidazo[1,2-a]pyridine-3-carboxamide]: the melting point stood at 202.6 °C. In data set [1], this compound showed an inhibition at 10 µM of under 40%.
As to `CCc1nc2cc(N3CCN(C)CC3)ccn2c1C(=O)NCc1ccc(N2CCOCC2)cc1` [compound 254, 2-Ethyl-7-(4-methylpiperazin-1-yl)-N-(4-morpholinobenzyl)imidazo[1,2-a]pyridine-3-carboxamide], the melting point was determined as 204.8 °C. The inhibition at 10 µM in data set [1] is under 40%.
Compound `CCc1nc2cc(-c3ccncc3)ccn2c1C(=O)NCc1ccc(N2CCOCC2)cc1` [compound 255, 2-Ethyl-N-(4-morpholinobenzyl)-7-(pyridin-4-yl)imidazo[1,2-a]pyridine-3-carboxamide] displayed a melting point of 210.1 °C. This compound also returned an inhibition at 10 µM in data set [1] of under 40%.
As for `CCc1nc2cc(N3CCN(Cc4ccc(F)cc4)CC3)ccn2c1C(=O)NCc1ccc(N2CCOCC2)cc1` [compound 257, 2-Ethyl-7-(4-(4-fluorobenzyl)piperazin-1-yl)-N-(4-morpholinobenzyl)imidazo[1,2-a]pyridine-3-carboxamide], the melting point is 212.5 °C. Also, in data set [1], the inhibition at 10 µM is 40 to 69%.
The compound `CCc1nc2ccccn2c1C(=O)NCc1ccc(N2CCC(c3ccc(OC(F)(F)F)cc3)CC2)cc1` [compound 266, 2-Ethyl-N-(4-(4-(4-(trifluoromethoxy)phenyl)piperidin-1-yl)benzyl)imidazo[1,2-a]pyridine-3-carboxamide] yielded a melting point of 146 °C. Besides, in data set [1], the inhibition at 10 µM was over 69% and the half-maximal inhibitory concentration (IC50) is under 1 µM.
For the compound `CCc1nc2ccc(OC)cn2c1C(=O)NCc1ccc(N2CCN(c3ccc(F)cc3)CC2)cc1` [compound 271, 2-Ethyl-N-(4-(4-(4-fluorophenyl)piperazin-1-yl)benzyl)-6-methoxyimidazo[1,2-a]pyridine-3-carboxamide], the melting point amounted to 173.8 °C. Also, in data set [1], the inhibition at 10 µM lay within 40 to 69%.
The compound `CCc1nc2ccc(C(F)(F)F)cn2c1C(=O)NCc1ccc(N2CCOCC2)cc1` [compound 273, 2-Ethyl-N-(4-morpholinobenzyl)-6-(trifluoromethyl)imidazo[1,2-a]pyridine-3-carboxamide] registered a melting point of 207.6 °C. In data set [1], this compound gave an inhibition at 10 µM of under 40%.
The like results for `CCc1nc2c(C(F)(F)F)cccn2c1C(=O)NCc1ccc(N2CCOCC2)cc1` [compound 274, 2-Ethyl-N-(4-morpholinobenzyl)-8-(trifluoromethyl)imidazo[1,2-a]pyridine-3-carboxamide] were, in that order, 200.6 °C and under 40%.
In the case of `CCc1nc2c(OC(F)F)cccn2c1C(=O)NCc1ccc(N2CCN(c3ccc(F)cc3)CC2)cc1` [compound 278, 8-(Difluoromethoxy)-2-ethyl-N-(4-(4-(4-fluorophenyl)piperazin-1-yl)benzyl)imidazo[1,2-a]pyridine-3-carboxamide], the melting point was determined as 186.3 °C. This compound also registered an inhibition at 10 µM in data set [1] of 40 to 69%.
`CCc1nc2c(OC(F)F)cccn2c1C(=O)NCc1ccc(N2CCOCC2)cc1` [compound 279, 8-(Difluoromethoxy)-2-ethyl-N-(4-morpholinobenzyl)imidazo[1,2-a]pyridine-3-carboxamide] registered a melting point of 163 °C. For the same compound, in data set [1], the inhibition at 10 µM is under 40%.
The like results for `CCc1nc2ccc(Cl)cn2c1-c1nc(Cc2ccc(Oc3ccc(F)cc3)cc2)no1` [compound 289, 5-(6-Chloro-2-ethylimidazo[1,2-a]pyridin-3-yl)-3-(4-(4-fluorophenoxy)benzyl)-1,2,4-oxadiazole] were, in that order, 129.9 °C and under 40%.
The like results for `CCc1nc2cc(C(F)(F)F)ccn2c1C(=O)NCc1ccc(N2CCOCC2)cc1` [compound 290, 2-Ethyl-N-(4-morpholinobenzyl)-7-(trifluoromethyl)imidazo[1,2-a]pyridine-3-carboxamide] were, in that order, 174.1 °C and under 40%.
The like results for `CCc1nc2ccc(Cl)cn2c1C(=O)NCc1ccc(N2CCC(C(N)=O)CC2)cc1` [compound 291, N-(4-(4-Carbamoylpiperidin-1-yl)benzyl)-6-chloro-2-ethylimidazo[1,2-a]pyridine-3-carboxamide] were, in that order, 257.5 °C and under 40%.
`CCc1nc2cc(Cl)ccn2c1C(=O)NCc1ccc(N2CCC(C(N)=O)CC2)cc1` [compound 292, N-(4-(4-Carbamoylpiperidin-1-yl)benzyl)-7-chloro-2-ethylimidazo[1,2-a]pyridine-3-carboxamide]: the melting point came out at 244 °C. Also, the inhibition at 10 µM in data set [1] is under 40%.
In the same order, the values of `CCc1nc2cc(Cl)ccn2c1C(=O)NCc1ccc(N2CCC(c3ccc(Cl)cc3)CC2)cc1` [compound 297, 7-Chloro-N-(4-(4-(4-chlorophenyl)piperidin-1-yl)benzyl)-2-ethylimidazo[1,2-a]pyridine-3-carboxamide] are 177 °C and 40 to 69%.
Regarding `CCc1nc2ccc(Cl)cn2c1C(=O)NCc1ccc2oc(C3CCCCC3)nc2c1` [compound 298, 6-Chloro-N-((2-cyclohexylbenzo[d]oxazol-5-yl)methyl)-2-ethylimidazo[1,2-a]pyridine-3-carboxamide], the melting point was 169.7 °C. In data set [1], this compound displayed an inhibition at 10 µM of over 69% and an IC50 of 1 to 20 µM.
The like results for `CCc1nc2cc(Cl)ccn2c1C(=O)NCc1ccc2oc(C3CCCCC3)nc2c1` [compound 299, 7-Chloro-N-((2-cyclohexylbenzo[d]oxazol-5-yl)methyl)-2-ethylimidazo[1,2-a]pyridine-3-carboxamide] were, in that order, 163 °C, over 69% and under 1 µM.
Regarding `CCc1nc2ccc(Cl)cn2c1C(=O)NCc1ccc(N2CCOCC2)c(Cl)c1` [compound 302, 6-Chloro-N-(3-chloro-4-morpholinobenzyl)-2-ethylimidazo[1,2-a]pyridine-3-carboxamide], the melting point stood at 175.5 °C. Further, the inhibition at 10 µM in data set [1] is under 40%.
The compound `CCc1nc2cc(Br)ccn2c1C(=O)NCc1ccc(N2CCN(c3ccc(F)cc3)CC2)cc1` [compound 304, 7-Bromo-2-ethyl-N-(4-(4-(4-fluorophenyl)piperazin-1-yl)benzyl)imidazo[1,2-a]pyridine-3-carboxamide] registered a melting point of 214.6 °C. In data set [1], this compound came in with an inhibition at 10 µM of over 69% and an IC50 of 1 to 20 µM.
As to `CCc1nc2cc(-c3cccnc3)ccn2c1C(=O)NCc1ccc(N2CCOCC2)cc1` [compound 305, 2-Ethyl-N-(4-morpholinobenzyl)-7-(pyridin-3-yl)imidazo[1,2-a]pyridine-3-carboxamide], the melting point came to 208.5 °C. In addition, the inhibition at 10 µM in data set [1] was under 40%.

(Values after US9029389B2 (Institut Pasteur Korea, priority 2011, dated 2015).)
